Data from US8999408B2, “Amla extract for transdermal application” (priority 2006, dated 2015).

Legend:
[1] = Transdermal diffusion of Vitamin C / reductones across guinea pig abdominal skin in a diffusion cell; assay type: in vitro ADME; settings: for Reductones transported across the guinea pig membrane: 3 hours, 37° C., phosphate buffer pH 7; for Fraction trans-dermal percent: 10 mg applied, after 3 hours, relative to reductone equivalent present in application
Experimental: The diffusion studies were carried out across the guinea pig abdominal skin. […] The guinea pig abdominal skin was placed between the upper and lower chambers of the diffusion cell, thereby separating the 2 chambers. The test composition was introduced into the upper chamber. Migration of the components from the upper chamber to the lower chamber (which had liquid or buffer at body pH) through the guinea pig abdominal skin allowed comparative studies for extent of migration of the components from different test compositions.
After introducing the test material in the upper chamber, the diffusion was carried out for 3 hours.
The lower chamber of the diffusion cells were filled with 15 ml of phosphate buffer, pH 7, and the prepared guinea pig skins were fixed on each diffusion cell between the upper and lower chambers of the diffusion cell. The temperature of the diffusion cell was maintained at 37° C.
The diffusion across the skin membrane of active ingredients, that is, scorbutic reductones (that is Vitamin C actives substances including ascorbic acid) and hydrogen ions was carried out for three hours.
To an aliquot (5 ml) of supernatant of the HPO3 extract 2.5 ml of acetone was added and the resulting solution was titrated with dye 2,6-dichloro indophenol until a faint pink color persisted for 15 seconds. The concentration of Vitamin C in the sample was expressed as mg ascorbic acid equivalent to 1 ml of the dye solution.

[2] = Radical scavenging by the DPPH (diphenylpicryl-hydrazyl) method; settings: 10 mg dose

Reductones transported across the guinea pig membrane ([1]; 10 mg applied on guinea pig membrane): 0.3 mg | Fraction trans-dermal percent [1]: 3.0% | Fraction trans-dermal percent ([1]; listed as Vitamin C): 3% | Reductones transported across the guinea pig membrane ([1]; 100 mg applied on guinea pig membrane): 8.4 mg
SMILES: O=C1O[C@H]([C@@H](O)CO)C(O)=C1O [ascorbic acid]
inhibition (DPPH radical scavenging) [2]: −4.66%
